Read-outs that look alike come from different tables or passages of the source.
Target: T1, Recombinant human TPH1 (MBP tagged) (Homo sapiens, UniProt P17752)
T1 construct: cloning full length human TPH1 cDNA in to a bacterial pMAL-c5E expression vector; made in house; host or cells: E. coli BL21 (DE3)
T1 sequence (P17752 1-444): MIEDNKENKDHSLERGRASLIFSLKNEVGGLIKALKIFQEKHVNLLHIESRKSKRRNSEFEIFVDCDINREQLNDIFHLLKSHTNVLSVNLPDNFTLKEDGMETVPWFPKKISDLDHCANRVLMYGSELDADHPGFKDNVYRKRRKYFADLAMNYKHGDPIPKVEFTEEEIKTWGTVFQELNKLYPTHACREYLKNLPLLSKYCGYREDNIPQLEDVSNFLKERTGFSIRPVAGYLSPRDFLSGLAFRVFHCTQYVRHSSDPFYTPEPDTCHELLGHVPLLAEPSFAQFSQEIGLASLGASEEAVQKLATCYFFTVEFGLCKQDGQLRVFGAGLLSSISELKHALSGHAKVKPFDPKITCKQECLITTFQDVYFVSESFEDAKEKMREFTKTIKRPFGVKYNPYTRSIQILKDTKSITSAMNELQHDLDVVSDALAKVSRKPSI
Test: TPH1 in vitro inhibition assay (kinetic fluorescence)
Type: biochemical
Method in brief: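 Final mix: 15 nM MBP-TPH1, 30 μM Trp, 36 μM 6-methyltetrahydropterin, 25 μM ferrous ammonium sulfate, 50 mM MES pH 7.1, 1% DMSO, room temperature.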

[1] = read-out: TPH1 Range (TPH1 inhibition IC50)

Row | IC50 [1] [nM] | Structure (SMILES) | IC50 (TPH1 Range (TPH1 inhibition IC50)) [nM]
1 | 50 to 300 | COc1ccc(C)c(-c2ccc([C@@H](Oc3cc(N4CCC5(CC4)CN[C@H](C(=O)O)C5)nc(N)n3)C(F)(F)F)cc2)c1 [Example 55p, (S)-8-(2-amino-6-((R)-2,2,2-trifluoro-1-(5′-methoxy-2′-methyl-[1,1′-biphenyl]-4-yl)ethoxy)pyrimidin-4-yl)-2,8-diazaspiro[4.5]decane-3-carboxylic acid] | 
2 | 300 to 3000 | COc1ccc(F)cc1-c1ccc([C@@H](Oc2cc(N3CCC4(CC3)CN[C@H](C(=O)O)C4)nc(N)n2)C(F)(F)F)cc1 [Example 55da, (S)-8-(2-amino-6-((R)-2,2,2-trifluoro-1-(5′-fluoro-2′-methoxy-[1,1′-biphenyl]-4-yl)ethoxy)pyrimidin-4-yl)-2,8-diazaspiro[4.5]decane-3-carboxylic acid] | 
3 | 300 to 3000 | Nc1nc(NCc2ccc3ccccc3c2)nc(N2CCC3(CC2)CNC(C(=O)O)C3)n1 (centres unmarked) [Example 39a, 8-(4-Amino-6-((naphthalen-2-ylmethyl)amino)-1,3,5-triazin-2-yl)-2,8-diazaspiro[4.5]decane-3-carboxylic acid] | 
4 | 300 to 3000 | COc1cc(-c2ccc([C@@H](Oc3cc(N4CCC5(CC4)CN[C@H](C(=O)O)C5)nc(N)n3)C(F)(F)F)cc2)ccc1C [Example 55n, (S)-8-(2-amino-6-((R)-2,2,2-trifluoro-1-(3′-methoxy-4′-methyl-[1,1′-biphenyl]-4-yl)ethoxy)pyrimidin-4-yl)-2,8-diazaspiro[4.5]decane-3-carboxylic acid] | 

The remaining lines, values behind:

Row | Structure (SMILES) | IC50 [1] [nM] | IC50 (TPH1 Range (TPH1 inhibition IC50)) [nM]
5 | Cc1ccn(-c2cc(Br)ccc2[C@@H](Oc2cc(N3CCC4(CC3)CN[C@H](C(=O)O)C4)nc(C)n2)C(F)(F)F)n1 [Example 27, (S)-8-(6-((R)-1-(4-Bromo-2-(3-methyl-1H-pyrazol-1-yl)phenyl)-2,2,2-trifluoroethoxy)-2-methylpyrimidin-4-yl)-2,8-diazaspiro[4.5]decane-3-carboxylic acid] | 50 to 300 | 
6 | CNC(=O)c1cccc(-c2cc(Cl)ccc2[C@@H](Oc2cc(N3CCC4(CC3)CN[C@H](C(=O)O)C4)nc(N)n2)C(F)(F)F)c1 [Example 34cm, (S)-8-(2-amino-6-((R)-1-(5-chloro-3′-(methylcarbamoyl)-[1,1′-biphenyl]-2-yl)-2,2,2-trifluoroethoxy)pyrimidin-4-yl)-2,8-diazaspiro[4.5]decane-3-carboxylic acid] | 50 to 300 | 
7 | Cc1ccn(-c2ccc(-c3ccc(Cl)c(Cl)c3)cc2[C@@H](Oc2cc(N3CCC4(CC3)CN[C@H](C(=O)O)C4)nc(N)n2)C(F)(F)F)n1 [Example 19p, (S)-8-(2-amino-6-((R)-1-(3′,4′-dichloro-4-(3-methyl-1H-pyrazol-1-yl)-[1,1′-biphenyl]-3-yl)-2,2,2-trifluoroethoxy)pyrimidin-4-yl)-2,8-diazaspiro[4.5] decane-3-carboxylic acid] | < 50 | 
8 | CCOc1ccc(-c2ccc([C@@H](Oc3cc(N4CCC5(CC4)CN[C@H](C(=O)O)C5)nc(N)n3)C(F)(F)F)c(-n3ccc(C)n3)c2)cc1Cl [Example 1al, (S)-8-(2-amino-6-((R)-1-(3′-chloro-4′-ethoxy-3-(3-methyl-1H-pyrazol-1-yl)-[1,1′-biphenyl]-4-yl)-2,2,2-trifluoroethoxy)pyrimidin-4-yl)-2,8-diazaspiro[4.5]decane-3-carboxylic acid] | < 50 | 
9 | Nc1nc(O[C@H](c2ccc(Cl)cc2-c2cccc3[nH]cnc23)C(F)(F)F)cc(N2CCC3(CC2)CN[C@H](C(=O)O)C3)n1 [Example 34cp, (S)-8-(6-((R)-1-(2-(1H-benzo[d]imidazol-4-yl)-4-chlorophenyl)-2,2,2-trifluoroethoxy)-2-aminopyrimidin-4-yl)-2,8-diazaspiro[4.5]decane-3-carboxylic acid] | 50 to 300 | 
10 | Cc1cc(-c2cc(Cl)ccc2[C@@H](Oc2cc(N3CCC4(CC3)CN[C@H](C(=O)O)C4)nc(N)n2)C(F)(F)F)cc(C)c1Cl [Example 34bc, (S)-8-(2-amino-6-((R)-1-(4′,5-dichloro-3′,5′-dimethyl-[1,1′-biphenyl]-2-yl)-2,2,2-trifluoroethoxy)pyrimidin-4-yl)-2,8-diazaspiro[4.5]decane-3-carboxylic acid] | 50 to 300 | 
11 | Nc1nc(O[C@H](c2ccc(Cl)cc2-c2cnccn2)C(F)(F)F)cc(N2CCC3(CC2)CN[C@H](C(=O)O)C3)n1 [Example 34cu, (S)-8-(2-amino-6-((R)-1-(4-chloro-2-(pyrazin-2-yl)phenyl)-2,2,2-trifluoroethoxy)pyrimidin-4-yl)-2,8-diazaspiro[4.5]decane-3-carboxylic acid] | < 50 | 
12 | CN1CCc2cc(-c3ccc([C@@H](Oc4cc(N5CCC6(CC5)CN[C@H](C(=O)O)C6)nc(N)n4)C(F)(F)F)cc3)ccc2C1=O [Example 55bj, (S)-8-(2-amino-6-((R)-2,2,2-trifluoro-1-(4-(2-methyl-1-oxo-1,2,3,4-tetrahydroisoquinolin-6-yl)phenyl)ethoxy)pyrimidin-4-yl)-2,8-diazaspiro[4.5]decane-3-carboxylic acid] |  | < 50
13 | COc1ncccc1-c1ccc([C@@H](Oc2cc(N3CCC4(CC3)CN[C@H](C(=O)O)C4)nc(C)n2)C(F)(F)F)c(-n2ccc(C)n2)c1 [Example 29k, (S)-8-(2-methyl-6-((R)-2,2,2-trifluoro-1-(4-(2-methoxypyridin-3-yl)-2-(3-methyl-1H-pyrazol-1-yl)phenyl)ethoxy)pyrimidin-4-yl)-2,8-diazaspiro[4.5]decane-3-carboxylic acid] | 50 to 300 | 
14 | Cc1ccn(-c2cc(-c3ccc(F)c(C(F)(F)F)c3)ccc2[C@@H](Oc2cc(N3CCC4(CC3)CN[C@H](C(=O)O)C4)nc(N)n2)C(F)(F)F)n1 [Example 1aw, (S)-8-(2-amino-6-((R)-2,2,2-trifluoro-1-(4′-fluoro-3-(3-methyl-1H-pyrazol-1-yl)-3′-(trifluoromethyl)-[1,1′-biphenyl]-4-yl)ethoxy)pyrimidin-4-yl)-2,8-diazaspiro[4.5]decane-3-carboxylic acid] | 50 to 300 | 
15 | Nc1nc(O[C@H](c2ccc(Cl)cc2-c2cc(Cl)cc(Cl)c2)C(F)(F)F)cc(N2CCC3(CC2)CN[C@H](C(=O)O)C3)n1 [Example 34bj, (S)-8-(2-amino-6-((R)-2,2,2-trifluoro-1-(3′,5,5′-trichloro-[1,1′-biphenyl]-2-yl)ethoxy)pyrimidin-4-yl)-2,8-diazaspiro[4.5]decane-3-carboxylic acid] | < 50 | 
16 | Cc1ccn(-c2cc(-c3ccc(C)c(F)c3)ccc2[C@@H](Oc2cc(N3CCC4(CC3)CN[C@H](C(=O)O)C4)nc(N)n2)C(F)(F)F)n1 [Example 1aq, (S)-8-(2-amino-6-((R)-2,2,2-trifluoro-1-(3′-fluoro-4′-methyl-3-(3-methyl-1H-pyrazol-1-yl)-[1,1′-biphenyl]-4-yl)ethoxy)pyrimidin-4-yl)-2,8-diazaspiro[4.5]decane-3-carboxylic acid] | 50 to 300 | 
17 | Cc1ccn(-c2ccc(-c3ccc(CCC(=O)O)cc3)cc2[C@@H](Oc2cc(N3CCC4(CC3)CN[C@H](C(=O)O)C4)nc(N)n2)C(F)(F)F)n1 [Example 19k, (S)-8-(2-amino-6-((R)-1-(4′-(2-carboxyethyl)-4-(3-methyl-1H-pyrazol-1-yl)-[1,1′-biphenyl]-3-yl)-2,2,2-trifluoroethoxy)pyrimidin-4-yl)-2,8-diazaspiro[4.5] decane-3-carboxylic acid] | < 50 | 
